Laboratory results reported in paper PMC10485003, “Antibiotic hyper-resistance in a class I aminoacyl-tRNA synthetase with altered active site signature motif” (Nature Communications, 2023).

Key:
Experiment in all cases: Activation step kinetics of reciprocal-residue mutants, mupirocin inhibition
Assay type in all cases: biochemical, Priestia (Bacillus) megaterium
Conditions in all cases: peer review response Table 1, read-out: Ki (Mup)
[1] = target: T1, P53A/G60N/R61K/W130Q/Y126S PmIleRS2 (Priestia megaterium, UniProt A0A0B6AVD3, G60N/P53A/R61K/W130Q/Y126S)
T1 sequence (A0A0B6AVD3 1-1032 P53A/G60N/R61K/Y126S/W130Q): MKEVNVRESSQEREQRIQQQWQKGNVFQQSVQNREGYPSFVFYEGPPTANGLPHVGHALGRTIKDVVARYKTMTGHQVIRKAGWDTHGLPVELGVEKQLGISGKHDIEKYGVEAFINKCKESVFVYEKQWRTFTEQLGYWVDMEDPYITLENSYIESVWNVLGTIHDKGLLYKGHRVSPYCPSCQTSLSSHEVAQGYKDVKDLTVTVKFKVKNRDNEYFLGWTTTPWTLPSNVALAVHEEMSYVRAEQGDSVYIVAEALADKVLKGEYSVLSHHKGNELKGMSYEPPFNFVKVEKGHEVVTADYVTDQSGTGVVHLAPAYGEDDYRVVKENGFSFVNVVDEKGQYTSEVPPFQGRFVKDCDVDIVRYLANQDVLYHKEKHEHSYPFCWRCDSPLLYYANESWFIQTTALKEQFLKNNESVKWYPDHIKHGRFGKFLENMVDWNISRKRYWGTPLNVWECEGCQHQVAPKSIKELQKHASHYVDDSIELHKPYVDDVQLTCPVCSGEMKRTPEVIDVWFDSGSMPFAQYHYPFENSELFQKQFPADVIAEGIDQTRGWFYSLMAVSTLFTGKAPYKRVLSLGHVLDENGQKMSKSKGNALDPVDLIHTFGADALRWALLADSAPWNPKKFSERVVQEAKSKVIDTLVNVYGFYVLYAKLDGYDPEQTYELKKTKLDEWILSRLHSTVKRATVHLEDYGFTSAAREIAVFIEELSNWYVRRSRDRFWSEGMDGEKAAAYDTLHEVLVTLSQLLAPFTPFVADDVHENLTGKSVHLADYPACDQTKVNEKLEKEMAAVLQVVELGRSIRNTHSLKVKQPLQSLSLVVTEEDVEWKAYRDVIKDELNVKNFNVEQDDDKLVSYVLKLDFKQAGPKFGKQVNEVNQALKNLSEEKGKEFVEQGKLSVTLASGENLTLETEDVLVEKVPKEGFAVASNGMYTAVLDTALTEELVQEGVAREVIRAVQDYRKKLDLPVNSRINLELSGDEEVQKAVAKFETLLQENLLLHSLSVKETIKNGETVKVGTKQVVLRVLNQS
Procedure: (§1) L-Ile and ATP concentrations ranged from 1/10 KM to 10 KM values. When measuring the KI towards one of the substrates, the other was held in saturation (concentrations at least 10 KM). The aliquots of the reaction mixture (1–2.5 μl) were quenched in 2 volumes of 500 mM NaOAc pH = 4.5, 0.1% SDS, and formed ^32P-ATP was separated from the remaining ^32P-PPi by thin-layer chromatography on Polygram CEL 300 PEI UV254 TLC plates (Macherey-Nagel, cat: 801063) using 750 mM KH2PO4 pH=3.5, 4 M urea buffer. Visualization and quantification of the signals was performed using a Typhoon Phosphoimager 5 (General Electric) and accompanying ImageQuant™ TL software (SV: 10.2). The kinetic constants were determined using a global fit option of the competitive inhibition model of GraphPad Prism 6 software (SV: 6.01). All experiments were performed in triplicates. The kcat was determined by dividing the maximal velocity, VM, with the used enzyme concentration. […]
(§2) same catalytic mechanisms. Further, mutation of the natural ALHH motif of DrIleRS2 to ALGH led to the loss of activity, showing that IleRS2 enzymes also require the 1st/3rd His for the activity (i.e. implying the same reaction mechanisms).
(§3) To address this point, we changed the sentence “This allows accommodation of the 3rd His in mut-GVHH-PmIleRS2 in a productive manner without a clash with the adenine […]
(§4) This allows accommodation of the 3 rd His in mut-GVHH-PmIleRS2 without displacement of the adenine moiety. This way, the 3rd His can take over the role of the 1 st His in the canonical reaction mechanism (Fig. 4B). (Page 9, lines 216-218)
(§5) We agree with the reviewer that the active sites of IleRS1 and IleRS2 differ in structural features allowing rearrangement of the α1-helix solely in IleRS2. We were eager t o understand the basis of it and mutated several conserved positions, within and around helix 1, in IleRS1 by introducing the analogous residues found in IleRS2. The same was done for IleRS2. […]
(§6) Table 1. Catalytic activity of the IleRS1 and IleRS2 mutants with exchanged reciprocal residues measured in the activation step […]

W130Q/Y126S PmIleRS2 = target: T2, W130Q/Y126S PmIleRS2 (Priestia megaterium, UniProt A0A0B6AVD3, W130Q/Y126S)
T2 sequence (A0A0B6AVD3 1-1032 Y126S/W130Q): T1 sequence (A0A0B6AVD3 1-1032 P53A/G60N/R61K/Y126S/W130Q)
Procedure: as §1, §2, §3, §4, §5, §6

P53A/G60N/R61K PmIleRS2 = target: T3, P53A/G60N/R61K PmIleRS2 (Priestia megaterium, UniProt A0A0B6AVD3, G60N/P53A/R61K)
T3 sequence (A0A0B6AVD3 1-1032 P53A/G60N/R61K): T1 sequence (A0A0B6AVD3 1-1032 P53A/G60N/R61K/Y126S/W130Q)
Procedure: as §1, §2, §3, §4, §5, §6

Compound: C/C(=C\C(=O)OCCCCCCCCC(=O)O)C[C@@H]1OC[C@H](C[C@@H]2O[C@H]2[C@@H](C)[C@H](C)O)[C@@H](O)[C@H]1O [mupirocin]
- Ki [1]: 21.1 ± 0.7 µM
- Ki (W130Q/Y126S PmIleRS2): 3.2 ± 0.1 µM
- Ki (P53A/G60N/R61K PmIleRS2): 3.1 ± 0.2 µM
